{"source": "patent US20020052377A1", "about": "“Method for treating angina” (priority 2000, published 2002)", "key": {"[1]": {"experiment": "MARISA ranolazine plasma concentration", "assay_type": "in vivo", "details": "human, oral; for concentration at 4 h: read-out: Ranolazine Plasma Concentration, Peak, mean (SD); for concentration at 12 h: read-out: Ranolazine Plasma Concentration, Trough, mean (SD)", "protocol": "Methods: Patients withdrawn from other anti-anginal drugs with reproducible angina-limited exercise duration and ≧1 mm ST depression were randomized to Ran (500 mg bid, 1000 mg bit and 1500 mg bid) and matching placebo (Pbo) in a double-blind, four-period, Latin square crossover design. Exercise testing with a modified Bruce protocol was performed at both trough (12 hr after dosing) and peak (4 hr after dosing). Results: 49 centers in the USA, Czech Republic, Poland and Canada randomized 191 patients. 168 completed all 4 double-blind treatment periods; 7 more completed 3 of 4 periods.\nResults: Ran improved exercise duration times in comparison to the placebo."}, "[2]": {"system": "patients with angina, with or without diabetes", "experiment": "MARISA exercise duration, diabetic (DM) vs non-DM patients", "assay_type": "in vivo, human", "protocol": "In this Example, ranolazine (Ran) was administered to two sets of human subjects. The first set of subjects were suffering from angina alone while the second set of subjects were suffering from angina and diabetes. The […] (Monotherapy Assessment of Ranolazine in Stable Angina) study randomized patients to Ran (500 mg, 1000 mg and 1500 mg bit) and placebo in a double-blind, 4 period crossover study. All patients performed a modified Bruce exercise test at the time of trough and peak drug levels on each treatment; 42 patients with DM were compared to 133 non-DM patients."}, "[3]": {"system": "patients with chronic stable angina pectoris", "experiment": "Exercise treadmill test (ETT), IR ranolazine.2HCl, placebo-controlled crossover (Example 3)", "assay_type": "in vivo, human", "details": "for Time to onset angina (mean) / Exercise Duration (mean) / Time to 1 mm ST depression (mean): all patients", "protocol": "In this Example, the safety and anti-ischemic effects of high plasma ranolazine levels in a large group of angina patients was evaluated and the duration of any effects during steady-state dosing with bid and tid regimens was assessed. In this Example, patients with chronic stable angina pectoris who were responsive to conventional antianginal drugs were treated with 3 ranolazine.2HCl dosing regimens: 267 mg tid, 400 mg bid and 400 mg tid IR Formulations of Example 1. Exercise testing parameters and ranolazine free base concentrations were determined at peak and trough plasma levels.\nThe study involved double-blind, placebo-controlled randomized treatment phase with 4 treatments (placebo, ranolazine.2HCl 400 mg bid, ranolazine.2HCl 267 mg tid, and ranolazine.2HCl 400 mg tid), 4 treatment sequences and 5 double-blind treatment periods in an extended period Latin square design on pre-qualified patients who were responsive to known antianginal therapy and had stable exercise times.\nHuman patients with chronic stable angina pectoris, of at least 3 months' duration, that had responded to conventional antianginal therapy were considered candidates. In addition, patients had to have electrocardiogrpahic (ECG) evidence of exercise-induced ischemia based upon horizontal or down-sloping ST-segment depression of ≧1 mm that persisted in 3 consecutive beats during an exercise stress test and an ECG pattern that would not interfere with interpretation of ST-segment changes. The latter criterion specifically excluded patients with left ventricular hypertrophy, pre-excitation, conduction abnormalities, or pacemaker rhythm. Other exclusion criteria included unstable angina or myocardial infarction within the preceding 3 months, heart failure defined as New York Heart Association Class HI or IV, significant valvular or congenital heart disease that was uncorrected, need for digoxin or long-acting nitrate therapy, labile diabetes mellitus, or other serious conditions that would confuse follow-up evaluation.\nThese immediate release ranolazine.2HCl dosing regimens (267 mg tid, 400 mg bid, 400 mg tid) and a placebo were administered during the treatment phase. Patients took one capsule containing either 267 mg or 400 mg of ranolazine dihydrochloride, or placebo at 8:00 a.m., 4:00 p.m., 8:00 p.m. and 12:00 a.m. All capsules were identical in appearance. Patients were randomized to 1 of 4 treatment sequences, with 25% of the patients assigned to each sequence. Each treatment was administered for 1 week, with one treatment repeated during a fifth 1 week period.\nTo qualify patients receiving their usual antianginal medications underwent a screening exercise treadmill test (ETT-1) using a Sheffield modified Bruce protocol. If the time to onset angina was […], an antianginal drug was withdrawn and treatment with single-blind placebo was initiated. After 1 to 2 weeks, patients returned for another ETT (ETT-2). If the time to onset angina decreased by 1 minute compared with ETT-1, the patient was considered to have completed the first qualifying ETT. If the decrease in time to onset angina was not ≧1 minute, a second antianginal drug could be withdrawn and the above sequence repeated. If necessary, a third antianginal drug could be withdrawn according to this procedure in order for the patient to qualify. Long-acting nitrates were always withdrawn first; beta-blockers; and calcium antagonists could be withdrawn in either order from patients not receiving long-acting nitrates. After the patient achieved the first qualifying ETT (ETT-2), a second qualifying ETT (ETT-3) was performed in which the time to onset angina had to be within i 15% of that observed during ETT-2. In addition, each of the qualifying ETTs had to have ECG signs of ischemia (≧1 mm horizontal or down-sloping ST-segment depression in 3 consecutive beats). Patients meeting these criteria were used in the study. […]"}, "[4]": {"details": "Peak, ranolazine.2HCl IR 267 mg tid"}, "[5]": {"details": "Peak, ranolazine.2HCl IR 400 mg bid"}, "[6]": {"details": "Peak, ranolazine.2HCl IR 400 mg tid"}, "[7]": {"details": "Trough, ranolazine.2HCl IR 267 mg tid"}, "[8]": {"details": "Trough, ranolazine.2HCl IR 400 mg bid"}, "[9]": {"details": "Trough, ranolazine.2HCl IR 400 mg tid"}}, "note": "Like-named read-outs stand apart in the source and are kept apart here."}
{"compound": "COc1ccccc1OCC(O)CN1CCN(CC(=O)Nc2c(C)cccc2C)CC1", "note": "(racemic) [Ranolazine, (±)-N-(2,6-dimethylphenyl)-4-[2-hydroxy-3-(2-methoxyphenoxy)propyl]-1-piperazine-acetamide]", "values": [{"measurement": "concentration at 4 h", "setting": "[1]; 500 mg BID", "value": 1120, "unit": "ng/mL"}, {"measurement": "concentration at 12 h", "setting": "[1]; 500 mg BID", "value": 846, "unit": "ng/mL"}, {"measurement": "concentration at 4 h", "setting": "[1]; 1000 mg BID", "value": 2460, "unit": "ng/mL"}, {"measurement": "concentration at 12 h", "setting": "[1]; 1000 mg BID", "value": 1950, "unit": "ng/mL"}, {"measurement": "concentration at 4 h", "setting": "[1]; 1500 mg BID", "value": 3940, "unit": "ng/mL"}, {"measurement": "concentration at 12 h", "setting": "[1]; 1500 mg BID", "value": 3270, "unit": "ng/mL"}, {"measurement": "Ls mean ED", "setting": "[2]; DM n = 42, 500 mg bid, peak", "value": 527, "unit": "s"}, {"measurement": "Ls mean ED", "setting": "[2]; DM n = 42, 500 mg bid, trough", "value": 520, "unit": "s"}, {"measurement": "Ls mean ED", "setting": "[2]; DM n = 42, 1000 mg bid, peak", "value": 550, "unit": "s"}, {"measurement": "Ls mean ED", "setting": "[2]; DM n = 42, 1000 mg bid, trough", "value": 526, "unit": "s"}, {"measurement": "Ls mean ED", "setting": "[2]; DM n = 42, 1500 mg bid, peak", "value": 547, "unit": "s"}, {"measurement": "Ls mean ED", "setting": "[2]; DM n = 42, 1500 mg bid, trough", "value": 530, "unit": "s"}, {"measurement": "Ls mean ED", "setting": "[2]; Non-DM n = 133, 500 mg bid, peak", "value": 530, "unit": "s"}, {"measurement": "Ls mean ED", "setting": "[2]; Non-DM n = 133, 500 mg bid, trough", "value": 528, "unit": "s"}, {"measurement": "Ls mean ED", "setting": "[2]; Non-DM n = 133, 1000 mg bid, peak", "value": 550, "unit": "s"}, {"measurement": "Ls mean ED", "setting": "[2]; Non-DM n = 133, 1000 mg bid, trough", "value": 539, "unit": "s"}, {"measurement": "Ls mean ED", "setting": "[2]; Non-DM n = 133, 1500 mg bid, peak", "value": 557, "unit": "s"}, {"measurement": "Ls mean ED", "setting": "[2]; Non-DM n = 133, 1500 mg bid, trough", "value": 544, "unit": "s"}, {"measurement": "Time to onset angina (mean)", "setting": "[3]; Peak (1 hour after dose), ranolazine.2HCl IR 267 mg tid", "value": 9.40, "unit": "min"}, {"measurement": "Time to onset angina (mean)", "setting": "[3]; Peak (1 hour after dose), ranolazine.2HCl IR 400 mg bid", "value": 9.33, "unit": "min"}, {"measurement": "Time to onset angina (mean)", "setting": "[3]; Peak (1 hour after dose), ranolazine.2HCl IR 400 mg tid", "value": 9.33, "unit": "min"}, {"measurement": "Exercise Duration (mean)", "setting": "[3]; [4]", "value": 10.87, "unit": "min"}, {"measurement": "Time to 1 mm ST depression (mean)", "setting": "[3]; [4]", "value": 9.99, "unit": "min"}, {"measurement": "Exercise Duration (mean)", "setting": "[3]; [5]", "value": 10.83, "unit": "min"}, {"measurement": "Time to 1 mm ST depression (mean)", "setting": "[3]; [5]", "value": 9.86, "unit": "min"}, {"measurement": "Exercise Duration (mean)", "setting": "[3]; [6]", "value": 10.84, "unit": "min"}, {"measurement": "Time to 1 mm ST depression (mean)", "setting": "[3]; [6]", "value": 9.94, "unit": "min"}, {"measurement": "Time to onset angina (mean)", "setting": "[3]; Trough (approx. 8 hours after dosing), ranolazine.2HCl IR 267 mg tid", "value": 8.78, "unit": "min"}, {"measurement": "Time to onset angina (mean)", "setting": "[3]; Trough (approx. 8 hours after dosing), ranolazine.2HCl IR 400 mg bid", "value": 8.77, "unit": "min"}, {"measurement": "Time to onset angina (mean)", "setting": "[3]; Trough (approx. 8 hours after dosing), ranolazine.2HCl IR 400 mg tid", "value": 8.65, "unit": "min"}, {"measurement": "Exercise Duration (mean)", "setting": "[3]; [7]", "value": 10.56, "unit": "min"}, {"measurement": "Time to 1 mm ST depression (mean)", "setting": "[3]; [7]", "value": 9.22, "unit": "min"}, {"measurement": "Exercise Duration (mean)", "setting": "[3]; [8]", "value": 10.55, "unit": "min"}, {"measurement": "Time to 1 mm ST depression (mean)", "setting": "[3]; [8]", "value": 9.22, "unit": "min"}, {"measurement": "Exercise Duration (mean)", "setting": "[3]; [9]", "value": 10.60, "unit": "min"}, {"measurement": "Time to 1 mm ST depression (mean)", "setting": "[3]; [9]", "value": 9.31, "unit": "min"}, {"measurement": "threshold plasma ranolazine free base concentration for anti-ischemic activity detected during ETT", "setting": "[3]; estimated from peak and trough results", "value": "above 550 ng per mL"}, {"measurement": "prolongation of time to onset of angina, duration of exercise and time to 1-mm ST-segment depression over placebo, on average", "setting": "[3]; peak plasma concentrations, three dosing regimens", "value": "about 0.33 minutes"}]}
